Laboratory results from patent US20250059162A1, “MULTI-PROTEIN DEGRADATION AGENT HAVING IMIDE SKELETON” (SUZHOU KINTOR PHARMACEUTICALS, INC., priority 2021, published 2025).

Tests used:
Format in all cases: cell-based
c-Myc protein = target: T1, c-Myc protein (Homo sapiens, UniProt P01106); experiment: c-Myc protein degradation in HL60 cells (Western blot); details: for remaining activity at 0.01 µM: HL-60, compound at 10 nM, 24 h, gray value relative to Ctrl (DMSO), read-out: Remaining amount of c-Myc protein (@10 nM/Ctrl)
T1 construct: degradation of myc and GSPT1 proteins in HL60 cells; endogenous in cells; host or cells: HL60
T1 sequence (P01106 whole entry): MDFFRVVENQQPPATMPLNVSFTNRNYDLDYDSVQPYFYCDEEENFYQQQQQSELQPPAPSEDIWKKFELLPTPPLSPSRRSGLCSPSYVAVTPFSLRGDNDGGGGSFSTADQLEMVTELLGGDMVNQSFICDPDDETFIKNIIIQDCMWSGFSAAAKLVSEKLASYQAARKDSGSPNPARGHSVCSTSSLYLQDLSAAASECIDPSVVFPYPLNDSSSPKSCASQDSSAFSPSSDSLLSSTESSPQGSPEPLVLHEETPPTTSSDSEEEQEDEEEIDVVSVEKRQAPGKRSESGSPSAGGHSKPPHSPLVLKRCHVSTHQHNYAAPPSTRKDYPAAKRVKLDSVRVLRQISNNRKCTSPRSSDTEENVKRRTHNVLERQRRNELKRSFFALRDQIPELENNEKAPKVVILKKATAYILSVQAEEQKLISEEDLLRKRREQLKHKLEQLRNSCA
Description: (§1) HL60 cells in the exponential growth phase were digested and plated into a 6-well plate at 1×10^6 cells per well. The cell culture medium was RPMI-1640 (meilunbio, MA0215). After a day of adherent growth of the cells, the compound of the present invention was added as a test drug for culture, and proteins were extracted 24 h later (Ctrl meant adding only DMSO at the same volume).
(§2) In the 6-well plate, the culture medium RPMI-1640 (meilunbio, MA0215) was removed, and the cells were washed once with PBS, digested with trypsin, and centrifuged and collected separately into 1.5 mL centrifuge tubes. 100 μL of RIPA lysis buffer (containing 100 μM PMSF) was added to each tube, mixed thoroughly, allowed to stand on ice for 30 min and then centrifuged at 12000 rpm at 4° C. using a centrifuge for 20 min. The supernatant was used for Western blotting experiments. The sample can be stored at −80° C.
(§3) By using the BCA protein concentration determination kit (from Thermo Fisher, Cat. No. 23225), the BSA standard determination solution and the samples to be tested (the samples to be tested can be diluted and then tested) were prepared according to the table A below. Samples were added to the 96-well plate. Each well was supplemented with PBS to 20 μL, and then 200 μL of BCA working solution (prepared according to the kit) was added respectively and mixed evenly. The plate was placed at 60° C. for 10 min, and then the absorbance at 562 nm was detected. After the reading was recorded, a standard curve was plotted using concentration gradients of the standards, and the absorbance of the samples was substituted to calculate the protein concentration of the samples.
(§4) • 2.1 Protein denaturation: RIPA protein buffer (purchased from Solarbio, Cat. No. R0010) and 5× Loading Buffer (SDS, glycerin, bromophenol blue, TRIS) (purchased from Solarbio, Cat. No. P1040) were added, and the protein samples were denatured at 100° C. for 5 min. • 2.2 Sample loading and electrophoresis: 10% precast gel and the corresponding electrophoresis buffer were used. The same mass of protein sample and protein ladder (purchased from thermo, Cat. No. 26617) were loaded into each well, and electrophoresis at 200 V was performed for 30 min. • 2.3 […]: The gel was excised to remove the excess part. Transferring to PVDF membrane was performed by the wet transfer method (before use, it was necessary to activate the PVDF membrane with methanol for 1 min) at 300 mA for 2 h, during which a lot of heat was generated, and thus cooling with an ice box was required. • 2.4 Blocking: After the transferring, the PVDF membrane was placed in 5% skim milk and blocked with shaking at room temperature for 1 h. • 2.5 Incubating with primary antibody: The PVDF membrane was cut according to the molecular weight indicated on the marker and placed in c-myc (purchased from abcam, Cat. No. ab32072), or GSPT1 (purchased from abcam, Cat. No. ab234433), or CK1α (purchased from abcam, Cat. No. ab206652), or IKZF2 (purchased from proteintech, Cat. No. 13554-1-AP), and GAPDH (purchased from CST, Cat. No. #97166) primary antibodies. The antibodies were diluted with TBST buffer (a solution prepared from TRIS, KCL and NaCl and adjusted to pH 7.4 with hydrochloric acid, and Tween 20 was added) at a ratio of 1:1000, and blocked overnight on a shaker at 4° C. • 2.6 Incubating with secondary antibody: The PVDF membrane incubated with the primary antibody was washed with TBST for 3 times, each time for 10 min. After washing, the membrane was placed in the secondary antibody of the corresponding species, and incubated at room temperature in a shaker for 2 h. • 2.7 Washing membrane and exposure: After incubated with the secondary antibodies, the membrane was washed 3 times with TBST on a shaker, 10 minutes each time. […]

GSPT1 protein = target: T2, GSPT1 protein (Homo sapiens, UniProt P15170); experiment: GSPT1 protein degradation in HL60 cells (Western blot); details: for remaining GSPT1 protein at 0.01 µM: HL-60, compound at 10 nM, 24 h, gray value relative to Ctrl (DMSO), read-out: Remaining amount of GSPT1 protein (@10 nM/Ctrl)
T2 construct: degradation of myc and GSPT1 proteins in HL60 cells; endogenous in cells; host or cells: HL60
T2 sequence (P15170 whole entry): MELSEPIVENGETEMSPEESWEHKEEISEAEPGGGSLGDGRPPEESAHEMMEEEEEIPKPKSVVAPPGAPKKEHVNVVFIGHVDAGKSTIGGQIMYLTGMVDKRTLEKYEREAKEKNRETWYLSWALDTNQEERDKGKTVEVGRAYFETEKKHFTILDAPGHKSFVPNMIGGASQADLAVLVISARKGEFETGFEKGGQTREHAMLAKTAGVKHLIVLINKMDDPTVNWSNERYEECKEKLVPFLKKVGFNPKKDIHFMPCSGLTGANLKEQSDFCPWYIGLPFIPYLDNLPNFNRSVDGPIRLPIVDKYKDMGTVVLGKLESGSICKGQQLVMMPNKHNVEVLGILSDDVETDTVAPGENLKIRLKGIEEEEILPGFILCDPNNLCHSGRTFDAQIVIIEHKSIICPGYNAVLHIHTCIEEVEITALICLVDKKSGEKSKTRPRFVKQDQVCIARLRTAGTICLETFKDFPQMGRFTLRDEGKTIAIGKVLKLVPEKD
Description: as §1, §2, §3, §4

HL60 cells = experiment: Anti-proliferation on HL60 cells (CellTiter-Glo, 3 days); details: Homo sapiens, HL-60, 72 h, 3 days incubation, CTG luminescence, IC50 by XLfit, read-out: HL60 cells Proliferation inhibitory activity
Method in brief: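 Log-phase cells were plated at 20000 cells/well and treated with compound dilutions in RPMI-1640 for 3 days, with 0.1% DMSO controls. Proliferation was read by CellTiter-Glo luminescence. IC50 was fitted from the inhibition rates.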

Row | SMILES | remaining activity at 0.01 µM (c-Myc protein) [%] | remaining GSPT1 protein at 0.01 µM (GSPT1 protein) [%] | IC50 (HL60 cells) [nM] | Degradation of GSPT1 protein in HL60 cells at 100 nM (FIG. 3, in words) (GSPT1 protein) | Degradation of c-Myc protein in HL60 cells at 300 nM (FIG. 2, FIG. 3, in words) (c-Myc protein) | Degradation of GSPT1 protein in HL60 cells at 300 nM (FIG. 2, FIG. 3, in words) (GSPT1 protein)
1 | O=C1CCC(N2Cc3cc(CNCC4CCN(c5cnc(-c6cccc7ccccc67)cn5)CC4)ccc3C2=O)C(=O)N1 (centres unmarked) [Compound A63] | 19 | 5 | 0.2 |  |  | 
2 | O=C1CCC(N2Cc3cc(NCCC4CCN(c5ncc(-c6cccc(Cl)c6)cc5C(F)(F)F)CC4)ccc3C2=O)C(=O)N1 (centres unmarked) [Compound A131] |  |  | 35.8 | significantly degrade GSPT1 protein | simultaneously degrade both GSPT1 and c-Myc proteins | simultaneously degrade both GSPT1 and c-Myc proteins
3 | N#Cc1cc(-c2cccc(Cl)c2)ccc1N1CCC(CNCc2ccc3c(c2)CN(C2CCC(=O)NC2=O)C3=O)CC1 (centres unmarked) [Compound A103] | 6 | 0 | 1.5 |  |  | 
4 | O=C1CCC(N2Cc3cc(CNCC4CCN(c5ncc(-c6cccc(F)c6)cc5C(F)(F)F)CC4)ccc3C2=O)C(=O)N1 (centres unmarked) [Compound A93] | 12 | 0 | 1.6 |  |  | 
5 | O=C1CCC(N2Cc3cc(CNCC4CCN(c5cnc(-c6cccc(Cl)c6)cn5)CC4)ccc3C2=O)C(=O)N1 (centres unmarked) [Compound A102] | 0 | 0 | 0.5 |  |  | 
6 | O=C1CCC(N2Cc3cc(CNCC4CCN(c5ncc(-c6cccc(Cl)c6)cc5F)CC4F)ccc3C2=O)C(=O)N1 (centres unmarked) [Compound A87] | 11 | 0 | 0.6 |  |  | 
7 | O=C1CCC(N2Cc3cc(CNCC4CCN(c5ncc(-c6ccc(Cl)cc6)cc5F)CC4)ccc3C2=O)C(=O)N1 (centres unmarked) [Compound A74] | 104 | 10 | 1.1 |  |  | 
8 | N#Cc1cccc(-c2cnc(N3CCC(CNCc4ccc5c(c4)CN(C4CCC(=O)NC4=O)C5=O)CC3)nc2)c1 (centres unmarked) [Compound A69] | 30 | 53 | 22 |  |  | 
9 | O=C1CCC(N2Cc3cc(CNCC4CCN(c5ncc(-c6ccccc6Cl)cc5F)CC4)ccc3C2=O)C(=O)N1 (centres unmarked) [Compound A72] | 16 | 0 | 63 |  |  | 
10 | O=C1CCC(N2Cc3cc(CNCC4(F)CCN(c5ncc(-c6cccc(Cl)c6)cc5C(F)(F)F)CC4)ccc3C2=O)C(=O)N1 (centres unmarked) [Compound A83] | 4 | 0 | 1.2 |  |  | 
11 | O=C1CCC(N2Cc3cc(CCCC4CCN(c5ncc(-c6cccc(Cl)c6)cc5C(F)(F)F)CC4)ccc3C2=O)C(=O)N1 (centres unmarked) [Compound A134] |  |  | 223 | significantly degrade GSPT1 protein | simultaneously degrade both GSPT1 and c-Myc proteins | simultaneously degrade both GSPT1 and c-Myc proteins
12 | O=C1C[C@H](N2Cc3cc(CNCC4CCN(c5ncc(-c6cccc(Cl)c6)cc5C(F)(F)F)CC4)ccc3C2=O)C(=O)N1 [Compound A169] | 105 | 65 | 46.3 |  | simultaneously degrade both GSPT1 and c-Myc proteins | significantly degrade GSPT1 protein
13 | O=C1CCC(N2Cc3cc(CNCC4CCN(c5ncc(-c6ccc(F)cc6)cc5F)CC4)ccc3C2=O)C(=O)N1 (centres unmarked) [Compound A109] | 3 | 6 | 6.2 |  |  | 
14 | CC(NCc1ccc2c(c1)CN(C1CCC(=O)NC1=O)C2=O)C1CCN(c2ncc(-c3cccc(Cl)c3)cc2F)CC1 (centres unmarked) [Compound A105] | 333 | 7 | 55 |  |  | 
15 | N#Cc1cc(CNCC2CCN(c3ncc(-c4cccc(Cl)c4)cc3C(F)(F)F)CC2)ccc1C(=O)NC1CCC(=O)NC1=O (centres unmarked) [Compound A162] |  |  | 231 | significantly degrade GSPT1 protein | simultaneously degrade both GSPT1 and c-Myc proteins | simultaneously degrade both GSPT1 and c-Myc proteins

More lines, main results first:

Row | remaining activity at 0.01 µM (c-Myc protein) [%] | remaining GSPT1 protein at 0.01 µM (GSPT1 protein) [%] | IC50 (HL60 cells) [nM] | Degradation of GSPT1 protein in HL60 cells at 100 nM (FIG. 3, in words) (GSPT1 protein) | SMILES | Degradation of c-Myc protein in HL60 cells at 300 nM (FIG. 2, FIG. 3, in words) (c-Myc protein) | Degradation of GSPT1 protein in HL60 cells at 300 nM (FIG. 2, FIG. 3, in words) (GSPT1 protein)
16 | 0 | 0 | < 0.2 |  | O=C1CCC(N2Cc3cc(CNCC4CCN(c5ncc(-c6cccc(Cl)c6)cc5Cl)CC4)ccc3C2=O)C(=O)N1 (centres unmarked) [Compound A75] |  | 
17 | 6 | 0 | < 0.2 |  | O=C1CCC(N2Cc3cc(CNCC4CCN(c5ncc(-c6ccccc6)cc5C(F)(F)F)CC4)ccc3C2=O)C(=O)N1 (centres unmarked) [Compound A92] |  | 
18 | 3 | 0 | < 0.2 |  | O=C1CCC(N2Cc3cc(CNCC4CCN(c5ncc(-c6cccc(C(F)(F)F)c6)cc5F)CC4)ccc3C2=O)C(=O)N1 (centres unmarked) [Compound A110] |  | 
19 | 0 | 4 | 0.3 |  | O=C1CCC(N2Cc3cc(CNCC4CCN(c5ncc(-c6cccc7ccccc67)s5)CC4)ccc3C2=O)C(=O)N1 (centres unmarked) [Compound A61] |  | 
20 | 0 | 0 | < 0.2 |  | O=C1CC[C@H](N2Cc3cc(CNCC4CCN(c5ncc(-c6cccc(Cl)c6)cc5C(F)(F)F)CC4)ccc3C2=O)C(=O)N1 [Compound A81] |  | 
21 | 50 | 2 | < 0.2 |  | COc1cc(-c2cccc(Cl)c2)cnc1N1CCC(CNCc2ccc3c(c2)CN(C2CCC(=O)NC2=O)C3=O)CC1 (centres unmarked) [Compound A77] |  | 
22 | 0 | 0 | 0.1 |  | Cc1cccc(-c2cnc(N3CCC(CNCc4ccc5c(c4)CN(C4CCC(=O)NC4=O)C5=O)CC3)c(C(F)(F)F)c2)c1 (centres unmarked) [Compound A94] |  | 
23 | 216 | 23 | < 0.2 |  | O=C1CCC(N2Cc3cc(CNCC4CCN(c5ccc(-c6cccc(Cl)c6)cn5)CC4)ccc3C2=O)C(=O)N1 (centres unmarked) [Compound A70] |  | 
24 | 0 | 14 | < 0.2 |  | O=C1CCC(N2Cc3cc(CNC(=O)C4CCN(c5ncc(-c6cccc(Cl)c6)cn5)CC4)ccc3C2=O)C(=O)N1 (centres unmarked) [Compound A65] |  | 
25 | 2 | 29 | < 0.2 |  | O=C1CCC(N2Cc3cc(CNCC4CCN(c5ncc(-c6cccc(F)c6)cc5F)CC4)ccc3C2=O)C(=O)N1 (centres unmarked) [Compound A108] |  | 
26 | 26 | 0 | < 0.2 |  | O=C1CCC(N2Cc3cc(CNCC4CCN(c5ccc(-c6cccc(Cl)c6)nc5)CC4)ccc3C2=O)C(=O)N1 (centres unmarked) [Compound A71] |  | 
